According to PMC10824666 (Nature Cancer, 2023):
Like-named read-outs stand apart in the source and are kept apart here.

What was measured:
Assay in all cases: biochemical
Set-up in all cases: Eurofins DiscoverX kinase panel, competitive binding assay at 1 uM, percent of DMSO control
Settings in all cases: competitive binding, percent of DMSO control
GSK3B = GSK3B (Homo sapiens, UniProt P49841)
Outline: (§1)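 Competitive binding assay across a 96-kinase panel with KIF18A compounds at 1 µM; values given as percentage of control (POC), single experiment.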

c-MET = c-MET (Homo sapiens, UniProt P08581)
Outline: as §1

ERK2 = molecular target: T1, ERK2 (Homo sapiens, UniProt P28482)
T1 construct: gene MAPK1
Outline: as §1

TAK1 = molecular target: T2, TAK1 (Homo sapiens, UniProt O43318)
T2 construct: gene MAP3K7
T2 sequence (O43318 1-606): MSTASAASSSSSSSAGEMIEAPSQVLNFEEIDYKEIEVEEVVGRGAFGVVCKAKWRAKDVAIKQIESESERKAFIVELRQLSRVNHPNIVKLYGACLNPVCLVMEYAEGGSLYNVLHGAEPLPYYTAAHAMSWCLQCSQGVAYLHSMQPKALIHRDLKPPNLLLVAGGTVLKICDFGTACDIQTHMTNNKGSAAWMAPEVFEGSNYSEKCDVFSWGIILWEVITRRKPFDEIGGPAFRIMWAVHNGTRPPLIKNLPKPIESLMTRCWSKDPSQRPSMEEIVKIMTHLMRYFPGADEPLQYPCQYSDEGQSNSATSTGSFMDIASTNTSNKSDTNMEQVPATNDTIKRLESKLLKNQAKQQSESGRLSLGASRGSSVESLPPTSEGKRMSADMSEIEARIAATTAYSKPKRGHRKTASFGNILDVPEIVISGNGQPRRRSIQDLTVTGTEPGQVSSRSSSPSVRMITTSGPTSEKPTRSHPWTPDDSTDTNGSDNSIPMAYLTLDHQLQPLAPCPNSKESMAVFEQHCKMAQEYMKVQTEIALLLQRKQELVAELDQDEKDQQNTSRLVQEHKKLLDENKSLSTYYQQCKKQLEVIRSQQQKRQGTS
Outline: as §1

TSSK1B = molecular target: T3, TSSK1B (Homo sapiens, UniProt Q9BXA7)
T3 sequence (Q9BXA7 1-367): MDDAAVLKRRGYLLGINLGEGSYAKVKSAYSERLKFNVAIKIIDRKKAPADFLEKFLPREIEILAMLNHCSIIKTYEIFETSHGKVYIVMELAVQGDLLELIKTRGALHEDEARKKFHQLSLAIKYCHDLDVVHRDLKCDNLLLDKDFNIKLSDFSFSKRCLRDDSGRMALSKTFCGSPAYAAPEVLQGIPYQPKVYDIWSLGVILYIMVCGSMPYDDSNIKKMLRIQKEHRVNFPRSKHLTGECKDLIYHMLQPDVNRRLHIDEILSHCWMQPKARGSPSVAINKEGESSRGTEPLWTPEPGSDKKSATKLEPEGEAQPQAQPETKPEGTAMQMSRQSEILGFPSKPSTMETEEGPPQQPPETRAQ
Outline: as §1

Brk = molecular target: T4, Brk (Homo sapiens, UniProt Q13882)
T4 construct: gene PTK6
Outline: as §1

PKB α = molecular target: T5, PKB α (Homo sapiens, UniProt P31749)
T5 construct: gene AKT1
Outline: as §1

[1] = read-out: Kinome Profiling performed by Eurofins DiscoverX / AM-1882, 1.0 µM / POC
[2] = read-out: Kinome Profiling performed by Eurofins DiscoverX / AM-0277, 1.0 µM / POC
[3] = read-out: Kinome Profiling performed by Eurofins DiscoverX / AM-5308, 1.0 µM / POC

T5 sequence (P31749 whole entry): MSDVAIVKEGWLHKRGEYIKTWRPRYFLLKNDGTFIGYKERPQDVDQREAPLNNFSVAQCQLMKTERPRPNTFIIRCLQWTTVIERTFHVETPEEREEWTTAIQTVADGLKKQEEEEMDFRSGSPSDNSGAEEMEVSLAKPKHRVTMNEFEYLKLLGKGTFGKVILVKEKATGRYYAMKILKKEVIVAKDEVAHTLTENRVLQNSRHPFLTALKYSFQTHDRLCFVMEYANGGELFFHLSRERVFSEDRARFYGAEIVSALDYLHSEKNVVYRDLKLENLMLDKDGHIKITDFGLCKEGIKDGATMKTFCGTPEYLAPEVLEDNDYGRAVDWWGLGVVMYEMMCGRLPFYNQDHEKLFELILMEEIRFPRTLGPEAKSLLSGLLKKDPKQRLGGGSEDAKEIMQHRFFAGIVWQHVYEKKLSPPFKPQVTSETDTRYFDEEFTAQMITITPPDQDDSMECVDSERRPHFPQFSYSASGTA
Sequence of c-MET (P08581 whole entry): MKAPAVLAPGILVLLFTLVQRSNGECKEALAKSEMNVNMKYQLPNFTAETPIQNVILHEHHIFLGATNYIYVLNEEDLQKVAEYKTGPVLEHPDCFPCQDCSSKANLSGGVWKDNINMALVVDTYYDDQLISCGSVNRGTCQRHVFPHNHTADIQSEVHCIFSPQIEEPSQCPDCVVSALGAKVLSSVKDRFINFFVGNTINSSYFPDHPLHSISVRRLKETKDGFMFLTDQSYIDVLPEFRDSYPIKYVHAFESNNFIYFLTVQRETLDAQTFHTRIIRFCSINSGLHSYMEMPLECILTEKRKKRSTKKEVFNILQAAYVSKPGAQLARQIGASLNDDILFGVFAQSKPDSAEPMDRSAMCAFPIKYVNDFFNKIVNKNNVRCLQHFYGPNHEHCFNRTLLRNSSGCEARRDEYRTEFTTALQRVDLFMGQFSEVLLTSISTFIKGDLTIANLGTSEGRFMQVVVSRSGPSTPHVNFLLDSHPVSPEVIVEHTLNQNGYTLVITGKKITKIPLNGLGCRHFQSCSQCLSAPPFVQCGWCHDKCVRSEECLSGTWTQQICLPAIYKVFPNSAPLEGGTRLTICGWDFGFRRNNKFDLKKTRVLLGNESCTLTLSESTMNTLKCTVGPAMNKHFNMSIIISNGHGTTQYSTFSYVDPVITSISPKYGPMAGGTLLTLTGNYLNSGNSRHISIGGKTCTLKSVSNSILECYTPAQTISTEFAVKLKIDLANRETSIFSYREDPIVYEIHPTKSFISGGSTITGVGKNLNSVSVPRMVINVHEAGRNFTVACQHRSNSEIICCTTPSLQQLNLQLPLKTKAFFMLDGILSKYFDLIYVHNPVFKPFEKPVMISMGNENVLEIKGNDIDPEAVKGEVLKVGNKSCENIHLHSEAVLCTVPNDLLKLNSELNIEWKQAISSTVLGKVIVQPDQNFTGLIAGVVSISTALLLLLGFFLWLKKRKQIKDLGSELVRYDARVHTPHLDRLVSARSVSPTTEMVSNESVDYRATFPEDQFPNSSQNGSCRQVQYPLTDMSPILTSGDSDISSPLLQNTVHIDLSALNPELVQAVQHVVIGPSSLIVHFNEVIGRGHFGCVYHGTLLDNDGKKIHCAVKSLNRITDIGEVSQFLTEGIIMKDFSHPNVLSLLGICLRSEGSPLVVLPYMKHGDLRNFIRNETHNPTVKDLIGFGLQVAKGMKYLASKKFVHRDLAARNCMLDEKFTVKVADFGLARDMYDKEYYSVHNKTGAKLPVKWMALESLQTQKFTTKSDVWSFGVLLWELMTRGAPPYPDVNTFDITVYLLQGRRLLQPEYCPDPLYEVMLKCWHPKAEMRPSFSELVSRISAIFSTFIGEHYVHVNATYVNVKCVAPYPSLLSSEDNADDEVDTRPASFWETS
Sequence of GSK3B (P49841 whole entry): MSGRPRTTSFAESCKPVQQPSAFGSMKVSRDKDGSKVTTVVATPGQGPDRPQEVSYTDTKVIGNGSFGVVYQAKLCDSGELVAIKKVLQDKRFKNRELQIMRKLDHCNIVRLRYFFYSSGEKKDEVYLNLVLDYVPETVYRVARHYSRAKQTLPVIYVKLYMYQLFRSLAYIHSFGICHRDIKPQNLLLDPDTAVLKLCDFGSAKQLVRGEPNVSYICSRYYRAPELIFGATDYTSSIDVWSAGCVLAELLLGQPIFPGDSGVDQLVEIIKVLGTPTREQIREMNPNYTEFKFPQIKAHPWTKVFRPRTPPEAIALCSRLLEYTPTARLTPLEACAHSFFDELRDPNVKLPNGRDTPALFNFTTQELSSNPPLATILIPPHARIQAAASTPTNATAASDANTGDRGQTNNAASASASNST
T1 sequence (P28482 whole entry): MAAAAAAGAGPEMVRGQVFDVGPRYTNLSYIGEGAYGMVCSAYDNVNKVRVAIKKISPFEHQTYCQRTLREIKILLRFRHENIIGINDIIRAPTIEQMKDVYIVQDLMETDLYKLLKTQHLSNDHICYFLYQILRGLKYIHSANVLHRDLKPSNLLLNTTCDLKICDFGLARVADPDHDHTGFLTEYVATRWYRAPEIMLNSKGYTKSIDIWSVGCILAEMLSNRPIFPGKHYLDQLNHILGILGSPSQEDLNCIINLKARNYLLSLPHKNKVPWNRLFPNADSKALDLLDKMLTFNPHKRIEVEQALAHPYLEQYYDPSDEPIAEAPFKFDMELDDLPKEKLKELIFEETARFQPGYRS
T4 sequence (Q13882 whole entry): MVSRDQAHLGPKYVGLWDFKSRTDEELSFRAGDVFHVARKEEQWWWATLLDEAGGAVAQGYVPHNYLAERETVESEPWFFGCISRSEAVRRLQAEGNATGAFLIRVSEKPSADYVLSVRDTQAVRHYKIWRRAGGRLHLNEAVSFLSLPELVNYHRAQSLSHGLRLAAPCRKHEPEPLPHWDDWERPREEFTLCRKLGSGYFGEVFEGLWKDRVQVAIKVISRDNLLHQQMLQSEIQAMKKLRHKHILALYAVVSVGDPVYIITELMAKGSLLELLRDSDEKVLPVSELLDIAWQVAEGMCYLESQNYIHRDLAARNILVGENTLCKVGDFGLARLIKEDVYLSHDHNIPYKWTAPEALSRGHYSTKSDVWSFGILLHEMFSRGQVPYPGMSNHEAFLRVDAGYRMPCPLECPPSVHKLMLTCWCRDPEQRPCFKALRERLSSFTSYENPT

CC(C)(C)NS(=O)(=O)c1cccc(NC(=O)c2ccc(S(=O)(=O)NC(C)(C)C)cc2N2CCC3(CC2)CC3)c1 [AM-1882]
remaining activity at 1 µM (GSK3B; [1]): 100%
remaining activity at 1 µM (c-MET; [1]): 100%
remaining activity at 1 µM (ERK2; [1]): 100%
remaining activity at 1 µM (TAK1; [1]): 100%
remaining activity at 1 µM (TSSK1B; [1]): 100%
remaining activity at 1 µM (Brk; [1]): 94%
remaining activity at 1 µM (PKB α; [1]): 100%

CC(C)(CO)Nc1ccc(C(=O)Nc2cccc(S(=O)(=O)C3CCCC3)c2)c(N2CCC3(CC2)CC3)n1 [AM-0277]
remaining activity at 1 µM (GSK3B; [2]): 100%
remaining activity at 1 µM (c-MET; [2]): 89%
remaining activity at 1 µM (ERK2; [2]): 95%
remaining activity at 1 µM (TAK1; [2]): 100%
remaining activity at 1 µM (TSSK1B; [2]): 84%
remaining activity at 1 µM (Brk; [2]): 95%
remaining activity at 1 µM (PKB α; [2]): 94%

C[C@@H]1CN(c2cccc(NC(=O)c3ccc(NS(=O)(=O)CCO)cc3N3CCC4(CC3)CC4)n2)CCO1 [AM-5308]
remaining activity at 1 µM (GSK3B; [3]): 100%
remaining activity at 1 µM (c-MET; [3]): 92%
remaining activity at 1 µM (ERK2; [3]): 89%
remaining activity at 1 µM (TAK1; [3]): 88.5%
remaining activity at 1 µM (TSSK1B; [3]): 100%
remaining activity at 1 µM (Brk; [3]): 93.5%
remaining activity at 1 µM (PKB α; [3]): 100%
